Blank lines part the entries; values can stand above or below the compound they belong to. The source made the active and inactive calls.
Legend:
HeLa = test: HeLa cell cytotoxicity, dose response, cytotoxicity control, 24 h, cherry-picked samples (AID 504726); assay type: functional, cell-based; conditions: Homo sapiens;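 also: potency for cytotoxicity as loss of luminescence signal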
Insulin-degrading enzyme = target: T1, Insulin-degrading enzyme (Homo sapiens, UniProt P14735); test: activators of recombinant IDE enzyme, dose response, counter-screen for IDE activator project, biochemical, fluorescence polarization (AID 588681)
T1 sequence (P14735 whole entry): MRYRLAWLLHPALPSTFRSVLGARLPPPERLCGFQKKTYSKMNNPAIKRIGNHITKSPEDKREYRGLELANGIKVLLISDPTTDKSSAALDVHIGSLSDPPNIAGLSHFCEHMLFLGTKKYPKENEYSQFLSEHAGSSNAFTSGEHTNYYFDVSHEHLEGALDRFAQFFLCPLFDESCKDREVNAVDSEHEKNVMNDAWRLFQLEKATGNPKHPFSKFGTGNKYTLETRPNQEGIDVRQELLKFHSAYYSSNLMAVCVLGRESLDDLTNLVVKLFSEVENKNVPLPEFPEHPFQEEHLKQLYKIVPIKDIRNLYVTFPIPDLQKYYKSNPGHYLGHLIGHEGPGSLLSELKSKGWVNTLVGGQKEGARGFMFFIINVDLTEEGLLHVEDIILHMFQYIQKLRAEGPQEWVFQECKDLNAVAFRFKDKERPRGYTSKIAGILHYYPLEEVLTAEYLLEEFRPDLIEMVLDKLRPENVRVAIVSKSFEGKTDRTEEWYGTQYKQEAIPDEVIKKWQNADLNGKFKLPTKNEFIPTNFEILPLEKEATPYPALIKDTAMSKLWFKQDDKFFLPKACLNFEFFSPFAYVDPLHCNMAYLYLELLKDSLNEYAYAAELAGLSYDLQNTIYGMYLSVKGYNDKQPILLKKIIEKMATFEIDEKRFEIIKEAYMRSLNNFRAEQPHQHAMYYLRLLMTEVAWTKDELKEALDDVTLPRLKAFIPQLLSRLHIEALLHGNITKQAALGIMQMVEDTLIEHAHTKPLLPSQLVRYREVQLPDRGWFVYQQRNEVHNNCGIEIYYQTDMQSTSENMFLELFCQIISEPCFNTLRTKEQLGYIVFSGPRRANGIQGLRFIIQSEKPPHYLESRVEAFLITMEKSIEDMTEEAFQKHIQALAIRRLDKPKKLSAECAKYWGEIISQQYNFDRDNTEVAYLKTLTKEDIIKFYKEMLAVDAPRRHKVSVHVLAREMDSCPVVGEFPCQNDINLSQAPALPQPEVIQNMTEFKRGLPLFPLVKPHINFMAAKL

LIM domain kinase 1 = LIM domain kinase 1 (Homo sapiens, UniProt P53667); test: Navigating the Kinome. Panel member name: LIMK1; assay type: functional
[1] = target: Platelet-derived growth factor receptor beta (Homo sapiens, UniProt P09619); assay type: functional;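 also: value comes from a kinome panel, with PDGFRB tested as one panel member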
[2] = target: cGMP-dependent protein kinase 1 (Homo sapiens, UniProt Q13976); assay type: functional;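 also: value from a kinome panel screen with PRKG1 as the panel member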
Chain of cGMP-dependent protein kinase 1 (Q13976 whole entry): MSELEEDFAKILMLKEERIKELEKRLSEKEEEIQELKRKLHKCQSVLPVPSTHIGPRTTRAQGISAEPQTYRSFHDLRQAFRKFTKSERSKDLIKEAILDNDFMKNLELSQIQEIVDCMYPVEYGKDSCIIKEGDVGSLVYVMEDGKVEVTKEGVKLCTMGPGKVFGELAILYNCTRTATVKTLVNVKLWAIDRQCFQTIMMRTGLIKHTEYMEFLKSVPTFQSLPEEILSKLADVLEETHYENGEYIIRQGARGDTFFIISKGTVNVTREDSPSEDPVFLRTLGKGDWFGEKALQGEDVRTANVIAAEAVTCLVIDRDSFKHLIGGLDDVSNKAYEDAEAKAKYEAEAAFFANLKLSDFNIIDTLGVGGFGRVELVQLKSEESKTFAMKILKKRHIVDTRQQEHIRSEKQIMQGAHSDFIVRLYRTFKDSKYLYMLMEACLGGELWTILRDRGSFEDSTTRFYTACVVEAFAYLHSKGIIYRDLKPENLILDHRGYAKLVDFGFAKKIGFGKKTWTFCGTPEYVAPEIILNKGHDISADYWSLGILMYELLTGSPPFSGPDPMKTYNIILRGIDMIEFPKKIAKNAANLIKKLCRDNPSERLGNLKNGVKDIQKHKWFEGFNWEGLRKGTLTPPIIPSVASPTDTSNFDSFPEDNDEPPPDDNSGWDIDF

[3] = target: RAC-gamma serine/threonine-protein kinase (Homo sapiens, UniProt Q9Y243); assay type: functional
[4] = target: Serine/threonine-protein kinase PLK4 (Homo sapiens, UniProt O00444); assay type: functional;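 also: PLK4 measured as one member of a kinome-wide kinase profiling panel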
[5] = target: Tyrosine-protein kinase SYK (Homo sapiens, UniProt P43405); assay type: functional
[6] = target: Serine/threonine-protein kinase Chk2 (Homo sapiens, UniProt O96017); assay type: functional;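 also: CHEK2 entry within a kinome-wide screening panel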
[7] = target: Rho-associated protein kinase 2 (Homo sapiens, UniProt O75116); assay type: functional
SRSF protein kinase 1 = SRSF protein kinase 1 (Homo sapiens, UniProt Q96SB4); assay type: functional;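 also: measured as one member of a kinome-wide kinase profiling panel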
[8] = target: MAP kinase-activated protein kinase 2 (Homo sapiens, UniProt P49137); assay type: functional;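 also: measured as one member of a kinome-wide kinase panel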
[9] = target: Tyrosine-protein kinase ITK/TSK (Homo sapiens, UniProt Q08881); assay type: functional;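 also: affinity for ITK measured as one member of a broad kinase panel profiling binding across the kinome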
[10] = target: Serine/threonine-protein kinase N2 (Homo sapiens, UniProt Q16513); assay type: functional
Chain of Serine/threonine-protein kinase N2 (Q16513 whole entry): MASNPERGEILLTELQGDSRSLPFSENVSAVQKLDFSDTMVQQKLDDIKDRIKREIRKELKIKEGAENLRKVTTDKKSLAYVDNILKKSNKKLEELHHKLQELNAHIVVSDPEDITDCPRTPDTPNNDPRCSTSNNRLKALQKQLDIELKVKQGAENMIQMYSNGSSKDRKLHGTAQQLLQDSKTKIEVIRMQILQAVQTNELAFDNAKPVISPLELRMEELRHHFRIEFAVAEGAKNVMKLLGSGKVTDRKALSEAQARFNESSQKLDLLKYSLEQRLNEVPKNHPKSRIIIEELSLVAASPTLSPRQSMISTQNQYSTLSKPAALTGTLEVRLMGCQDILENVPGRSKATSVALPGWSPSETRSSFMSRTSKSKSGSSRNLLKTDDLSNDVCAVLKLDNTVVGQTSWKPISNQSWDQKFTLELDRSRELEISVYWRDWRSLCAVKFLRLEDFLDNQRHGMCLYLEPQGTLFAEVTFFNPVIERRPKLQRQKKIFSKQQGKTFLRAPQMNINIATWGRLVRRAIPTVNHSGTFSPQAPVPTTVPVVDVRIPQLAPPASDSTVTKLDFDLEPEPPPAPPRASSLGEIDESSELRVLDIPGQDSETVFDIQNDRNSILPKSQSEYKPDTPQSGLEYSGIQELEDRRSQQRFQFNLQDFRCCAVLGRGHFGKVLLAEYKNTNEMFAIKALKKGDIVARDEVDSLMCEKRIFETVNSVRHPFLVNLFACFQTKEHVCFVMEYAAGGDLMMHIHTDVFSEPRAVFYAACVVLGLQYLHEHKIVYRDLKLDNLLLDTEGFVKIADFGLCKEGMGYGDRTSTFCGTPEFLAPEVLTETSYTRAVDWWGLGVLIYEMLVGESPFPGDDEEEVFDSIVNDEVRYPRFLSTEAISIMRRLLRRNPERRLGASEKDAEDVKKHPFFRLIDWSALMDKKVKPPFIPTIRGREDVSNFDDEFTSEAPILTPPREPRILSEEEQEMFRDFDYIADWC

[11] = target: Testis-specific serine/threonine-protein kinase 1 (Homo sapiens, UniProt Q9BXA7); assay type: functional
[12] = target: Mitogen-activated protein kinase 1 (Homo sapiens, UniProt P28482); assay type: functional
[13] = target: Dual specificity tyrosine-phosphorylation-regulated kinase 4 (Homo sapiens, UniProt Q9NR20); assay type: functional
[14] = target: Protein kinase C iota type (Homo sapiens, UniProt P41743); assay type: functional;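 also: measured within a kinome-wide kinase panel, PRKCI as panel member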
Chain of Protein kinase C iota type (P41743 whole entry): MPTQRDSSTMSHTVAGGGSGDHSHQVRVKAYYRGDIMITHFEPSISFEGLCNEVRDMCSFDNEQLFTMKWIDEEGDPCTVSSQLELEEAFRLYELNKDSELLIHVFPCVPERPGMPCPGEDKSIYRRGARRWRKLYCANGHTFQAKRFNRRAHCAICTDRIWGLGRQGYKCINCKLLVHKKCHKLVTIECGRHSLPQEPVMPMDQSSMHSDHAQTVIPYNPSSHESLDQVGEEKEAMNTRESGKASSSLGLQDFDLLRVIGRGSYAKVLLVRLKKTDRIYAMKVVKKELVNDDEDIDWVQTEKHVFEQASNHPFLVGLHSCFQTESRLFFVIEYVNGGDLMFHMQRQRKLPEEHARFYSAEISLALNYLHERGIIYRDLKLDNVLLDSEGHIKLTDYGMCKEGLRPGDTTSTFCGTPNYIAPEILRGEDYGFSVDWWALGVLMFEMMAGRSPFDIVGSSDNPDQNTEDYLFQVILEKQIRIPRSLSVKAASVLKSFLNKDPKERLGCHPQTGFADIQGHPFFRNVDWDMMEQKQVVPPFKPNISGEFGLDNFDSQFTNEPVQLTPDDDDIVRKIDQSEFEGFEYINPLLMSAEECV

[15] = target: Interleukin-1 receptor-associated kinase 1 (Homo sapiens, UniProt P51617); assay type: functional;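 also: IRAK1 tested as one member of a kinome panel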
[16] = target: Maternal embryonic leucine zipper kinase (Homo sapiens, UniProt Q14680); assay type: functional
Chain of Maternal embryonic leucine zipper kinase (Q14680 whole entry): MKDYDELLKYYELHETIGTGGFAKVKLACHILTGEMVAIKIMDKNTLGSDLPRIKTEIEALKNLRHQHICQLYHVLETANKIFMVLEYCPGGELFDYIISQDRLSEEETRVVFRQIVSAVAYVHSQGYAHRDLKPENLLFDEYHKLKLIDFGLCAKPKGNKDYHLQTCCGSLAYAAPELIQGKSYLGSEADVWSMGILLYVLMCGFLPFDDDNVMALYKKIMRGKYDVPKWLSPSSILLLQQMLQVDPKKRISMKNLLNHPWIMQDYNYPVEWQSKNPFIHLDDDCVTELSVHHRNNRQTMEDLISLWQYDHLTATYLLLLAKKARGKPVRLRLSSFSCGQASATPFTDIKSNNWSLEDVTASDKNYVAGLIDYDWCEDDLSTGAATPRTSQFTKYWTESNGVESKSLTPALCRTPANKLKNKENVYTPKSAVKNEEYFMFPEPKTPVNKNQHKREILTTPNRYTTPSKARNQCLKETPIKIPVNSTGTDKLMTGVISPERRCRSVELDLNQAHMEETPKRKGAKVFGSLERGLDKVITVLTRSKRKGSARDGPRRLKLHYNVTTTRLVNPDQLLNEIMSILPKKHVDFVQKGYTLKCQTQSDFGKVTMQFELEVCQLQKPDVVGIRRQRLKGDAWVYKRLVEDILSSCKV

[17] = target: Interleukin-1 receptor-associated kinase 4 (Homo sapiens, UniProt Q9NWZ3); assay type: functional
[18] = target: Vascular endothelial growth factor receptor 3 (Homo sapiens, UniProt P35916); assay type: functional;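 also: value from a kinome-wide profiling panel, with FLT4 as the panel member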
Chain of Vascular endothelial growth factor receptor 3 (P35916 whole entry): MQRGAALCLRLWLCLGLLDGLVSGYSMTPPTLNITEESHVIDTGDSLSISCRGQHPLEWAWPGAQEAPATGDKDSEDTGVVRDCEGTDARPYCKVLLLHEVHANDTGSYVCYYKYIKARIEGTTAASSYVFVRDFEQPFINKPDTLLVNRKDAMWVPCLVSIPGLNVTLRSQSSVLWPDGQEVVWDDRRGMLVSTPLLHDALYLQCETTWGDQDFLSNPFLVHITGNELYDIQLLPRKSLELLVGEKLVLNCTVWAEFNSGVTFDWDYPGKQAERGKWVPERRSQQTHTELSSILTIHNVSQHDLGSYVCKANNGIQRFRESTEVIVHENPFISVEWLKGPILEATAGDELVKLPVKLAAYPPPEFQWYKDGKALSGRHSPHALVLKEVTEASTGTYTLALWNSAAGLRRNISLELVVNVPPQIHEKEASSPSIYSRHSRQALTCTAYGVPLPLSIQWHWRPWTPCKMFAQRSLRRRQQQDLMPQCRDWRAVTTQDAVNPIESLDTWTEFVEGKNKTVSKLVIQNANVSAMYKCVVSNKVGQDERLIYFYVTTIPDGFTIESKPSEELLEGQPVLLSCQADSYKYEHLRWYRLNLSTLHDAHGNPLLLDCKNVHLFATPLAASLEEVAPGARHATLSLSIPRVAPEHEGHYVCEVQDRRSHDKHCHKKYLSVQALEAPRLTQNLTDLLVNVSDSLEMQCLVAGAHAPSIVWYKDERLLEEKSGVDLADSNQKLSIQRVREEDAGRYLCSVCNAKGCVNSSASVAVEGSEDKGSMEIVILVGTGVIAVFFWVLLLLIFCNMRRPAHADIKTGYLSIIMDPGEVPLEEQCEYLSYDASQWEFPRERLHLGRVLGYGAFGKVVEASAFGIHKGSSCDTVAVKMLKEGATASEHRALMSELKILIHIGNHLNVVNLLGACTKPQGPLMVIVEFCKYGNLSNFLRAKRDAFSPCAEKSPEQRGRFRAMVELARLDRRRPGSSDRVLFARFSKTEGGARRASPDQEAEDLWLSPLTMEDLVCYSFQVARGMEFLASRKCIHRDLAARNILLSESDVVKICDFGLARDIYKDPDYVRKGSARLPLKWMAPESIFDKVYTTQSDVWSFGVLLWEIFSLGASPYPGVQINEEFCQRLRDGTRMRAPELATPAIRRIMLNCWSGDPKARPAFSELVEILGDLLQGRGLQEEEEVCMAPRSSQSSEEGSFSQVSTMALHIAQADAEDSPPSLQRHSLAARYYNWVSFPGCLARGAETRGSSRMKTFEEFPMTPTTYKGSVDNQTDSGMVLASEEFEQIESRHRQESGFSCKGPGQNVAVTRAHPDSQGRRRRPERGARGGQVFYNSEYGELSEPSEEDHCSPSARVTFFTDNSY

[19] = target: Tyrosine-protein kinase Fer (Homo sapiens, UniProt P16591); assay type: functional;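 also: FER tested as one member of a kinome panel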
Chain of Tyrosine-protein kinase Fer (P16591 whole entry): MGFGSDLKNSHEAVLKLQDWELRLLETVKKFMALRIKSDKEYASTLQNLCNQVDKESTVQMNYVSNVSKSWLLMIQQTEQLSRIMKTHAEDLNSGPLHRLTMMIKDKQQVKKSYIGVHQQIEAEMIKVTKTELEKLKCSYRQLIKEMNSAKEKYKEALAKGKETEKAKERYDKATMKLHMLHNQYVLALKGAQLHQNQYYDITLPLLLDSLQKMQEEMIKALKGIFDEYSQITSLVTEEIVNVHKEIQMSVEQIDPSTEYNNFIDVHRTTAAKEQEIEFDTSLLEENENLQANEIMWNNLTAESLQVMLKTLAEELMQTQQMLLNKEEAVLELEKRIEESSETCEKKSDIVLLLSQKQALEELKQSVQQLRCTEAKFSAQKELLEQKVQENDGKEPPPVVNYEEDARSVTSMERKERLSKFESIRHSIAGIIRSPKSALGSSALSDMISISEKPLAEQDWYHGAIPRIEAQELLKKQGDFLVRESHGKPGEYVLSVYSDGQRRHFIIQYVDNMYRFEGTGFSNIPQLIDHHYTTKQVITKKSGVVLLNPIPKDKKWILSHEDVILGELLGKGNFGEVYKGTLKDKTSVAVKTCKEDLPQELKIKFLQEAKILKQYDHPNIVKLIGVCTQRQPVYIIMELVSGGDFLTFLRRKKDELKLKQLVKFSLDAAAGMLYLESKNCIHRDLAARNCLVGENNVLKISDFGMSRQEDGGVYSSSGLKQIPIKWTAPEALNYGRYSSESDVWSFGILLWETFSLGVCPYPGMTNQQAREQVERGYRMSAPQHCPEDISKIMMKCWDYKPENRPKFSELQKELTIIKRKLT

[20] = target: Serine/threonine-protein kinase DCLK1 (Homo sapiens, UniProt O15075); assay type: functional;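 also: affinity for DCLK1 (listed as DCAMKL1) measured as one member of a kinome-wide kinase profiling panel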
[21] = target: Serine/threonine-protein kinase PLK1 (Homo sapiens, UniProt P53350); assay type: functional;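 also: PLK1 measured as one member of a kinome-wide profiling panel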
[22] = target: Tyrosine-protein kinase FRK (Homo sapiens, UniProt P42685); assay type: functional;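 also: FRK tested as one member of a kinome panel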
Caspase-8 = Caspase-8 (Homo sapiens, UniProt Q14790); test: caspase-8 inhibition counter-screen, dose response, selectivity assay for caspase-6 inhibitor project, biochemical, Z-IETD-R110 fluorescence, cherry-picked samples (AID 743294)

Structure (SMILES): CCN(CC)CCCC(C)n1c2nc(=O)[nH]c(=O)c-2nc2cc(Cl)ccc21 (centres undefined)
- AC50 (HeLa): 8490 nM (active)
- EC50 (Insulin-degrading enzyme): > 54700 nM (inactive)

- Ki (LIM domain kinase 1): > 3160 nM (inactive)
- Ki [1]: > 2000 nM (inactive)
Structure (SMILES): COc1cccc(CNC(=O)c2cnc(-c3ccncc3)nc2)c1

- Ki [2]: 100 nM (active)
- pKi [2]: 7
- Ki [3]: > 10000 nM (inactive)
- Ki [4]: > 3980 nM (inactive)
- Ki [5]: 1000 nM (active)
- pKi [5]: 6
- Ki [6]: > 1580 nM (inactive)
- Ki [7]: > 3.98 nM (inactive)
- Ki (SRSF protein kinase 1): 1000 nM (active)
- pKi (SRSF protein kinase 1): 6
- Ki [8]: 3980 nM (active)
- pKi [8]: 5.4
- Ki [9]: 398 nM (active)
- pKi [9]: 6.4
- Ki [10]: 7.94 nM (active)
- pKi [10]: 8.1
- Ki [11]: 126 nM (active)
- pKi [11]: 6.9
- Ki [12]: 50.1 nM (active)
- pKi [12]: 7.3
- Ki [13]: 3160 nM (active)
- pKi [13]: 5.5
- Ki [14]: 2510 nM (active)
- pKi [14]: 5.6
- Ki [15]: 79.4 nM (active)
- pKi [15]: 7.1
- Ki [16]: 5.01 nM (active)
- pKi [16]: 8.3
- Ki [17]: 39.8 nM (active)
- pKi [17]: 7.4
- Ki [18]: 200 nM (active)
- pKi [18]: 6.7
- Ki [19]: 200 nM (active)
- pKi [19]: 6.7
- Ki [20]: > 10000 nM (inactive)
- Ki [21]: 251 nM (active)
- pKi [21]: 6.6
- Ki [22]: 398 nM (active)
- pKi [22]: 6.4
Structure (SMILES): OC1CCC(Nc2nc(Cl)cc(-c3c[nH]c4ncccc34)n2)CC1 (centres undefined)

- AC50 (Caspase-8): 18600 nM (active)
Structure (SMILES): O=C(COC(=O)c1ccc([N+](=O)[O-])s1)Nc1ccc(F)cc1

— ChEMBL document CHEMBL1201862, “PubChem BioAssay data set” (2004)
